In patent US20260158011A1 (Achieve Life Sciences, Inc., priority 2023, published 2026):
Where two headings read alike, the source gives them in different places.

Test system: adult daily cigarette smokers
[1] = drug reduction Day 35, first Insomnia listing, pooled blinded
[2] = drug reduction Day 35, pooled blinded
[3] = drug reduction Day 35, second Insomnia listing, pooled blinded
[4] = drug reduction Day 42, pooled blinded
[5] = drug reduction Day 49, pooled blinded
[6] = drug reduction Day 55, pooled blinded
[7] = drug reduction Day 58, pooled blinded
[8] = drug reduction Day 63, pooled blinded
[9] = follow up period, start day 86, resolution day 87, pooled blinded
[10] = follow up period, start day 87, resolution day 90, pooled blinded
[11] = follow up period, start day 87, resolution day 96, pooled blinded
[12] = follow up period, start day 102, resolution day 105, pooled blinded
[13] = follow up period, start day 104, resolution day 105, pooled blinded
[14] = follow up period, start day 107, resolution day 111, pooled blinded
[15] = follow up period, start day 112, resolution day 113, pooled blinded
[16] = follow up period, start day 115, resolution day 120, pooled blinded
[17] = follow up period, start day 119, resolution day 139, pooled blinded
[18] = follow up period, start day 146, no resolution day, pooled blinded
[19] = follow up period, start day 148, resolution day 152, pooled blinded
[20] = follow up period, start day 151, resolution day 161, pooled blinded
[21] = follow up period, start day 161, resolution day 161, pooled blinded
[22] = follow up period, start day 180, no resolution day, pooled blinded

Method: Subjects are randomized to one of the three arms A, B, or C. In Arm A, subjects are treated with a placebo for 12 weeks plus behavioral support. In Arm B, subjects are treated with 3.0 mg cytisinicline TID for 6 weeks followed by a placebo for 6 weeks plus behavioral support. In Arm C, subjects are treated with 3.0 mg cytisinicline TID for 12 weeks plus behavioral support.
The safety objectives of the study will be the following: • To evaluate the safety profile of 3.0 mg TID cytisinicline compared to placebo (e.g., Arm B versus Arm A and Arm C versus Arm A); • To compare the safety profiles of Arm B subjects versus Arm C subjects with respect to adverse events occurring after Week 6 on the study.
The population for this study will be male or female adults who are daily cigarette smokers, intending to quit smoking, and are willing to set a quit date that is within 5 to 7 days of the start of treatment. Study treatment will start the day after randomization.
Safety assessments at clinic visits will occur on Day 2 and Day 7 during Week 1 and then weekly throughout the Treatment Period. Laboratory hematology and chemistry assessments will be made on Day 7, Week 6, and Week 12 (End of Treatment “EOT”) during the Treatment Period. Any ongoing adverse events at Week 12 will be followed until resolved or determined to be chronic. The end of study is defined as the last follow-up visit (up to the Week 24 visit) for the last subject.
The Treatment Period will begin on the day after randomization. Study treatment will be blinded, and subjects will take one study tablet three times during the day, approximately 5 hours apart. Subjects randomly assigned to Arm A will take one placebo tablet at each dosing per day for 12 weeks. Arm B subjects will take one cytisinicline tablet at each dosing per day for the first 6 weeks followed by one placebo tablet at each dosing per day for the last 6 weeks. Arm C subjects will take one cytisinicline tablet at each dosing per day for 12 weeks.
Laboratory (hematology and chemistry) evaluations will be performed at the Week 1, Week 6, and Week 12 clinic visits using a central laboratory.
Safety will be assessed by consideration of all adverse events reported by or elicited from the subject and abnormalities detected on hematology and serum chemistry tests. Worsening of other pre-existing medical conditions and any changes to concomitant medications/treatments will also be taken into account in this evaluation.
Routine laboratory safety samples will be analyzed at screening and at clinic visits as identified in Table 15 for each subject by a central laboratory. […] Clinically significant abnormalities occurring during the study will be recorded on the AE page. The reference ranges for laboratory parameters will also be entered in the database and filed in the Investigator site file.
Safety assessments will include reported adverse events, laboratory test results, and vital signs. Safety variables will be summarized for the Safety Analysis Set (SAS), defined as all randomized subjects who take at least one dose of study drug.
Adverse events (AEs) will be coded using the MedDRA dictionary. Coding will include system organ class (SOC) and preferred term (PT). All verbatim descriptions and coded terms will be listed for all AEs.

O=c1cccc2n1C[C@@H]1CNC[C@H]2C1 [cytisine, (−)-Cytisine]
Dose reduction for Insomnia: Outcome [1]: Recovered/Resolved | Dose reduction for Insomnia: Relatedness [1]: Probable | Dose reduction for Insomnia: Severity [1]: Moderate | Dose reduction for Burning Eyes: Outcome [2]: Recovered/Resolved | Dose reduction for Burning Eyes: Relatedness [2]: Possible | Dose reduction for Burning Eyes: Severity [2]: Moderate | Dose reduction for Headache: Outcome [2]: Recovered/Resolved | Dose reduction for Headache: Relatedness [2]: Possible | Dose reduction for Headache: Severity [2]: Moderate | Dose reduction for Nausea: Outcome [2]: Recovered/Resolved | Dose reduction for Nausea: Relatedness [2]: Possible | Dose reduction for Nausea: Severity [2]: Moderate | Dose reduction for Sinus Congestion: Outcome [2]: Recovered/Resolved | Dose reduction for Sinus Congestion: Relatedness [2]: Possible | Dose reduction for Sinus Congestion: Severity [2]: Moderate | Dose reduction for Sinus Pressure: Outcome [2]: Recovered/Resolved | Dose reduction for Sinus Pressure: Relatedness [2]: Possible | Dose reduction for Sinus Pressure: Severity [2]: Moderate | Dose reduction for Insomnia: Outcome [3]: Recovered/Resolved | Dose reduction for Insomnia: Relatedness [3]: Possible | Dose reduction for Insomnia: Severity [3]: Moderate | Dose reduction for Difficulty Falling Asleep: Outcome [4]: Recovered/Resolved | Dose reduction for Difficulty Falling Asleep: Relatedness [4]: Possible | Dose reduction for Difficulty Falling Asleep: Severity [4]: Moderate | Dose reduction for Restless Leg Syndrome: Outcome [5]: Recovered/Resolved | Dose reduction for Restless Leg Syndrome: Relatedness [5]: Possible | Dose reduction for Restless Leg Syndrome: Severity [5]: Moderate | Dose reduction for Memory Loss: Outcome [6]: Recovered/Resolved | Dose reduction for Memory Loss: Relatedness [6]: Possible | Dose reduction for Memory Loss: Severity [6]: Moderate | Dose reduction for Bilateral Foot Swelling: Outcome [7]: Recovered/Resolved | Dose reduction for Bilateral Foot Swelling: Relatedness [7]: Possible | Dose reduction for Bilateral Foot Swelling: Severity [7]: Mild | Dose reduction for Facial Swelling (Forehead Area): Outcome [7]: Recovered/Resolved | Dose reduction for Facial Swelling (Forehead Area): Relatedness [7]: Possible | Dose reduction for Facial Swelling (Forehead Area): Severity [7]: Mild | Dose reduction for Right Hand Swelling: Outcome [7]: Recovered/Resolved | Dose reduction for Right Hand Swelling: Relatedness [7]: Possible | Dose reduction for Right Hand Swelling: Severity [7]: Mild | Dose reduction for Headache: Outcome [8]: Recovered/Resolved | Dose reduction for Headache: Relatedness [8]: Possible | Dose reduction for Headache: Severity [8]: Mild | Serious adverse event Post Surgical Complications: Causality [9]: Not | Serious adverse event Post Surgical Complications: Outcome [9]: Fatal | Serious adverse event Post Surgical Complications: Severity/Intensity [9]: Severe | Serious adverse event Worsening Fatigue: Causality [10]: Not | Serious adverse event Worsening Fatigue: Outcome [10]: Recovered/Resolved | Serious adverse event Worsening Fatigue: Severity/Intensity [10]: Moderate | Serious adverse event Coronary Atherosclerosis: Causality [11]: Not | Serious adverse event Coronary Atherosclerosis: Outcome [11]: Recovered/Resolved | Serious adverse event Coronary Atherosclerosis: Severity/Intensity [11]: Severe | Serious adverse event Acute Cholecystitis: Causality [12]: Not | Serious adverse event Acute Cholecystitis: Outcome [12]: Recovered/Resolved | Serious adverse event Acute Cholecystitis: Severity/Intensity [12]: Moderate | Serious adverse event Transient Ischemic Attack: Causality [13]: Not | Serious adverse event Transient Ischemic Attack: Outcome [13]: Recovered/Resolved | Serious adverse event Transient Ischemic Attack: Severity/Intensity [13]: Severe | Serious adverse event Perforated Bowel: Causality [14]: Not | Serious adverse event Perforated Bowel: Outcome [14]: Recovered/Resolved | Serious adverse event Perforated Bowel: Severity/Intensity [14]: Severe | Serious adverse event Abscess on Right Groin Area: Causality [15]: Not | Serious adverse event Abscess on Right Groin Area: Outcome [15]: Recovered/Resolved | Serious adverse event Abscess on Right Groin Area: Severity/Intensity [15]: Severe | Serious adverse event COPD Exacerbation: Causality [16]: Not | Serious adverse event COPD Exacerbation: Outcome [16]: Recovered/Resolved | Serious adverse event COPD Exacerbation: Severity/Intensity [16]: Severe | Serious adverse event Sepsis: Causality [16]: Unlikely | Serious adverse event Sepsis: Outcome [16]: Recovered/Resolved | Serious adverse event Sepsis: Severity/Intensity [16]: Severe | Serious adverse event Pneumonia: Causality [17]: Not | Serious adverse event Pneumonia: Outcome [17]: Recovered/Resolved | Serious adverse event Pneumonia: Severity/Intensity [17]: Severe | Serious adverse event Acute Kidney Injury Superimposed to Chronic Kidney Disease: Causality [18]: Unlikely | Serious adverse event Acute Kidney Injury Superimposed to Chronic Kidney Disease: Outcome [18]: Not Recovered/Not | Serious adverse event Acute Kidney Injury Superimposed to Chronic Kidney Disease: Severity/Intensity [18]: Severe | Serious adverse event Ureterolithiasis: Causality [18]: Unlikely | Serious adverse event Ureterolithiasis: Outcome [18]: Not Recovered/Not | Serious adverse event Ureterolithiasis: Severity/Intensity [18]: Severe | Serious adverse event Pneumonia: Causality [19]: Not | Serious adverse event Pneumonia: Outcome [19]: Recovered/Resolved | Serious adverse event Pneumonia: Severity/Intensity [19]: Severe | Serious adverse event Dyspnea: Causality [20]: Unlikely | Serious adverse event Dyspnea: Outcome [20]: Recovered/Resolved | Serious adverse event Dyspnea: Severity/Intensity [20]: Severe | Serious adverse event Stab Wound: Causality [21]: Not | Serious adverse event Stab Wound: Outcome [21]: Fatal | Serious adverse event Stab Wound: Severity/Intensity [21]: Severe | Serious adverse event Dyspnea: Causality [22]: Not | Serious adverse event Dyspnea: Outcome [22]: Not Recovered/Not | Serious adverse event Dyspnea: Severity/Intensity [22]: Severe | Psychiatric adverse event Abnormal dreams, % (pooled blinded data): (7.5) % | Psychiatric adverse event Acute stress disorder, % (pooled blinded data): (0.1) % | Psychiatric adverse event Adjustment disorder with depressed mood, % (pooled blinded data): (0.1) % | Psychiatric adverse event Affect lability, % (pooled blinded data): (0.1) % | Psychiatric adverse event Anhedonia, % (pooled blinded data): (0.5) % | Psychiatric adverse event Anxiety, % (pooled blinded data): (2.5) % | Psychiatric adverse event Attention deficit hyperactivity disorder, % (pooled blinded data): (0.1) % | Psychiatric adverse event Bipolar disorder, % (pooled blinded data): (0.1) % | Psychiatric adverse event Bruxism, % (pooled blinded data): (0.1) % | Psychiatric adverse event Depressed mood, % (pooled blinded data): (0.5) % | Psychiatric adverse event Depression, % (pooled blinded data): (2.0) % | Psychiatric adverse event Initial insomnia, % (pooled blinded data): (0.3) % | Psychiatric adverse event Insomnia, % (pooled blinded data): (10.2) % | Psychiatric adverse event Irritability, % (pooled blinded data): (1.7) % | Psychiatric adverse event Major depression, % (pooled blinded data): (0.1) % | Psychiatric adverse event Mood swings, % (pooled blinded data): (0.1) % | Psychiatric adverse event Nightmare, % (pooled blinded data): (1.1) % | Psychiatric adverse event Panic attack, % (pooled blinded data): (0.3) % | Psychiatric adverse event Paranoia, % (pooled blinded data): (0.1) % | Psychiatric adverse event Post-traumatic stress disorder, % (pooled blinded data): (0.1) % | Psychiatric adverse event Restlessness, % (pooled blinded data): (0.3) % | Psychiatric adverse event Sleep disorder, % (pooled blinded data): (0.5) % | Psychiatric adverse event Somnambulism, % (pooled blinded data): (0.1) % | Psychiatric adverse event Stress, % (pooled blinded data): (0.1) % | Psychiatric adverse event Suicidal ideation, % (pooled blinded data): (0.1) % | Psychiatric adverse event Suicide attempt, % (pooled blinded data): (0.3) % | Psychiatric disorders (any psychiatric reported adverse event), % (pooled blinded data): (22.9) % | Abnormal lab AE related to study drug, Elevated ALT Level: Outcome of Adverse Event (start Day 29, dose not changed): Recovered/Resolved | Abnormal lab AE related to study drug, Elevated ALT Level: Severity (start Day 29, dose not changed): Mild | Abnormal lab AE related to study drug, Elevated AST Level: Outcome of Adverse Event (start Day 29, dose not changed): Recovered/Resolved | Abnormal lab AE related to study drug, Elevated AST Level: Severity (start Day 29, dose not changed): Mild | Abnormal lab AE related to study drug, Elevated Hemoglobin: Outcome of Adverse Event (start Day 85): Recovered/Resolved | Abnormal lab AE related to study drug, Low White Blood Count: Outcome of Adverse Event (start Day 85): Not Recovered/Not | Abnormal lab AE related to study drug, Elevated ALT: Outcome of Adverse Event (start Day 169): Not Recovered/Not | Abnormal lab AE related to study drug, Elevated ALT: Severity (start Day 169): Moderate | Abnormal lab AE related to study drug, Low White Blood Count: Parameter value at AE (value at screening 5.1 × 10^9/L, start Day 85): 2.5e+09 L⁻¹ | Abnormal lab AE related to study drug, Elevated ALT Level: Parameter value at AE (value at screening 25 IU/L, start Day 29, dose not changed): 195 IU/L | Abnormal lab AE related to study drug, Elevated AST Level: Parameter value at AE (value at screening 29 IU/L, start Day 29, dose not changed): 129 IU/L | Abnormal lab AE related to study drug, Elevated ALT: Parameter value at AE (value at screening 50 IU/L, start Day 169): 82 IU/L | Abnormal lab AE related to study drug, Elevated Hemoglobin: Parameter value at AE (value at screening 158 g/L, start Day 85): 130 g/L
